The values below come from patent US8470872B2, “Compounds with activity at estrogen receptors” (Acadia Pharmaceuticals Inc., priority 2007, dated 2013).

Assay [1] has as its target T1, ERα (Homo sapiens, UniProt P03372).
T1 sequence (P03372 1-595): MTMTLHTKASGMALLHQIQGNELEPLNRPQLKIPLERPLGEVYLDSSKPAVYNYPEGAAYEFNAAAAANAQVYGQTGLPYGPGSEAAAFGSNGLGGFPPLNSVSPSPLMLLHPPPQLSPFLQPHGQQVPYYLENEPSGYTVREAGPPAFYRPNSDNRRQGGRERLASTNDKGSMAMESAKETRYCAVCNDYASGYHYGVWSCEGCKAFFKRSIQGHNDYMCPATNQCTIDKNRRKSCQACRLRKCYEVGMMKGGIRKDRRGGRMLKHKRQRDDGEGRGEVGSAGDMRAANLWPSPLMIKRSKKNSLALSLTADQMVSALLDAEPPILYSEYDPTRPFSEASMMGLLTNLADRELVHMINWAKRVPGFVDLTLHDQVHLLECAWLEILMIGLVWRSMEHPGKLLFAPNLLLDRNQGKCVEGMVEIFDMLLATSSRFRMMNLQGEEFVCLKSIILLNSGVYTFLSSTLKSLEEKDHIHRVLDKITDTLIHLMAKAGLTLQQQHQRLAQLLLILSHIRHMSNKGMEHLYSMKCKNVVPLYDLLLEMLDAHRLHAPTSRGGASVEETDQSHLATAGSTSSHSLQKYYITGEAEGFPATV
The experiment in a line: Luciferase reporter gene assay (3*ERE) in HEK293 cells, ERα. Format: cell-based. The note with it: 48 hours with test compounds; for EC50: read-out: Luciferase ERα pEC50 (converted). Here is the method:
(§1) HEK293 cells were grown to 70% confluency in DMEM containing 10% calf serum (Hyclone) prior to transfection. On the day of transfection (day 1), expression vectors for ERa or ERb were cotransfected along a construct containing a synthetic 3*ERE (estrogen response element) upstream of the luciferase gene (Panomics), using Polyfect (Qiagen) per manufacturer's recommendations. Sixteen hours post-transfection, cells were incubated in serum free DMEM. On day 3, cells were incubated with the test compounds for 48 hours in serum free DMEM. Cells extracts were then obtained by lyzing and the Luciferase activity measured. All of these steps were performed using a commercially available kit (Promega).
Background: A reporter such as luciferase makes a cellular process visible.

The target of assay [2] is T2, ERβ (Homo sapiens, UniProt Q92731). The experiment in a line: R-SAT (Receptor Selection and Amplification Technology) functional assay, ERβ. The arrangement: expressed in transfected cells; host or cells: NIH-3T3 fibroblasts, transient transfection. It is filed as cell-based. The note with it: NIH-3T3 fibroblasts transfected with receptor, na = not active; for EC50: read-out: R-SAT ERβ pEC50 (converted). From the text:
(§2) R-SAT® (Receptor Selection and Amplification Technology) is a cell-based functional assay that allows one to monitor receptor-dependent proliferative responses and has been described elsewhere. The technology has been validated for a number of receptors including GPCRs (Brauner-Osborne and Brann 1996), RTKs (Burstein et al. 1998), cytokine receptors (Piu et al. 2002) and nuclear receptors (Piu et al. 2005; Piu et al. 2006). This process is achieved by partial cellular transformation via loss of contact inhibition and growth factor dependency. Monitoring is achieved by transfecting the cells with a β-galactosidase reporter gene vector whose expression is under a constitutively active promoter. Briefly, NIH-3T3 fibroblasts were plated overnight in 96-wells plates in DMEM 10% calf serum (Hyclone) and grown to 60-70% confluency prior to transfection. Transient transfections were performed using Polyfect (Qiagen) according to manufacturer's instructions. Typically a transfection mix would consist of the receptor and the β-galactosidase expression vectors. Sixteen hours post-transfection, cells were incubated with different doses of ligand in DMEM containing 30% Ultraculture (Hyclone) and 0.4% calf serum (Hyclone) to generate a dose response curve. After 5 days, plates were developed by adding onto the washed cells a solution containing the β-galactosidase substrate o-nitrophenyl-D-galacto pyranoside ONPG (in phosphate-buffered saline with 5% Nonidet P-40 detergent) as described (Piu et al. 2002). Plates were read using a microplate reader at 420 nm. Data from R-SAT® assays were fit to the equation: r=A+B(x/(x+c)), where A=minimum response, B=maximum response minus minimum response, c=EC50, r=response, and x=concentration of ligand. Curves were generated using the curve fitting softwares Excel Fit and GraphPad Prism (San Diego, Calif.).

For assay [3], the target named is T2, ERβ. The assay is described as follows: Luciferase reporter gene assay (3*ERE) in HEK293 cells, ERβ. The conditions noted are these: 48 hours with test compounds; for EC50: read-out: Luciferase ERβ pEC50 (converted). Format: cell-based. How it is done: as §1
For assay [4], the target named is T1, ERα. The assay is described as follows: R-SAT (Receptor Selection and Amplification Technology) functional assay, ERα. Format: cell-based. The arrangement: expressed in transfected cells; host or cells: NIH-3T3 fibroblasts, transient transfection. The note with it: NIH-3T3 fibroblasts transfected with receptor, na = not active; for EC50: read-out: R-SAT ERα pEC50 (converted).
Source text: as §2

The target in assay [5] is T2, ERβ. The experiment in a line: Competitive 3H-estradiol binding assay, ERβ. The note with it: cytosolic extracts of transfected HEK293T cells, 1 nM 3H-estradiol; read-out: Binding ERβ pKi (converted). How it is done:
(§3) HEK293T cells were transiently transfected for 48 hours with expression vectors encoding ERα or ERβ, before being serum starved for 4-6 hours. Cells were then harvested by scraping in ice-cold PBS and subsequently lysed using a cold buffer containing 10 mM Tris pH 7.4, 1 mM EDTA, 1 mM DTT before being subjected to polytron twice for 10 seconds. Cytosolic extracts were isolated by centrifugation at 15000 g for 30 minutes at 4° C. Competitive binding of the test compounds or the estradiol control was performed on 20 uL extract by overnight incubation at 4° C. in a total volume of 100 μL containing 1 nM ^3H-estradiol (Perkin Elmer, Boston, Mass.). The bound fraction was separated from the unbound one by the addition of 100 μL of Dextran coated charcoal, incubated for 10 minutes and subsequent centrifugation at 1000 rpm for 10 minutes. Samples (100 μL per sample) were then analyzed by liquid scintillation. Data was then analyzed using the curve fitting software GraphPad Prism.

For assay [6], the target named is T1, ERα. The assay is described as follows: Competitive 3H-estradiol binding assay, ERα. The note with it: cytosolic extracts of transfected HEK293T cells, 1 nM 3H-estradiol; read-out: Binding ERα pKi (converted). How it is done: as §3

T2 sequence (Q92731 whole entry, species assumed): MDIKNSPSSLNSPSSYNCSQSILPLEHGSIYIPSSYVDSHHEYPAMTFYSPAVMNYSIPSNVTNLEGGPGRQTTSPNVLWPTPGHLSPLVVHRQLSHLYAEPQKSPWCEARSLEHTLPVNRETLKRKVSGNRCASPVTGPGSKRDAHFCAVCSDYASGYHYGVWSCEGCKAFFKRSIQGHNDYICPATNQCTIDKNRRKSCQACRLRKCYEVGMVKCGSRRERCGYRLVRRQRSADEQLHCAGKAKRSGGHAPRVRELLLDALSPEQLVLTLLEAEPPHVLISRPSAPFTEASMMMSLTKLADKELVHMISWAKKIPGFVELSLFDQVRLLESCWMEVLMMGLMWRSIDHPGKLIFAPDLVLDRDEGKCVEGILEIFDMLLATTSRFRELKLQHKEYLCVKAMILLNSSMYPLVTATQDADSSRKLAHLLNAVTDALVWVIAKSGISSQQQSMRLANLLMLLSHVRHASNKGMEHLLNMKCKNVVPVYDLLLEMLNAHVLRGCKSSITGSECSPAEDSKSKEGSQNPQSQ

As for `Oc1ccc(C23CCCCCC2Oc2cccc(F)c23)cc1` (single isomer, unassigned) [Compound 231, 4-(1-Fluoro-6,7,8,9,10,10a-hexahydro-5aH-benzo[b]cyclohepta[d]-furan-10a-yl)phenol], in assay [1], the “Luciferase ERα % Eff” value is reported as 43% and the EC50 is 200 nM. Also, in assay [2], the “R-SAT ERβ % Eff” value stood at 91% and the EC50 is 1 nM. In assay [3], the “Luciferase ERβ % Eff” value is recorded as 114% and the EC50 was 0.158 nM. In addition, in assay [4], the “R-SAT ERα % Eff” value stood at 86% and the EC50 was 158 nM.
`Oc1ccc(C23CCCCCC2Oc2cccc(F)c23)cc1` (single isomer, unassigned) [Compound 232, 4-(1-Fluoro-6,7,8,9,10,10a-hexahydro-5aH-benzo[b]cyclohepta[d]-furan-10a-yl)phenol]: in assay [1], the “Luciferase ERα % Eff” value came to 27% and the EC50 is 1260 nM. In assay [2], the “R-SAT ERβ % Eff” value was 76% and the EC50 was 10 nM. Further, in assay [3], the “Luciferase ERβ % Eff” value amounted to 80% and the EC50 was 7.94 nM. In assay [4], the “R-SAT ERα % Eff” value was determined as 37% and the EC50 is 794 nM.
In the case of `Oc1ccc(C23CCCCCC2Oc2cccc(F)c23)cc1` (single isomer, unassigned) [Compound 982, 4-(1-Fluoro-6,7,8,9,10,10a-hexahydro-5aH-benzo[b]cyclohepta[d]-furan-10a-yl)phenol], in assay [2], the “R-SAT ERβ % Eff” value came to 87% and the EC50 is 0.0501 nM. In assay [4], the “R-SAT ERα % Eff” value was found to be 108% and the EC50 is 15.8 nM.
Consider `Oc1ccc(C23CCCCC2Oc2cccc(F)c23)cc1` (centres unmarked) [Compound 130, 4-(1-Fluoro-5a,6,7,8,9,9a-hexahydrodibenzo[b,d]furan-9a-yl)phenol], for which, in assay [5], the Ki is 25.1 nM. In addition, in assay [1], the “Luciferase ERα % Eff” value turned out to be 51% and the EC50 is 631 nM. Besides, in assay [6], the Ki was 126 nM. Further, in assay [2], the “R-SAT ERβ % Eff” value worked out at 97% and the EC50 was 6.31 nM. Also, in assay [3], the “Luciferase ERβ % Eff” value was 129% and the EC50 is 2.51 nM. In assay [4], the “R-SAT ERα % Eff” value worked out at 70% and the EC50 was 631 nM.
Regarding `Oc1ccc(C23CCCCC=C2Oc2cccc(F)c23)cc1` (centres unmarked) [Compound 349, (E)-4-(1-Fluoro-8,9,10,10a-tetrahydro-7H-benzo[b]cyclohepta-[d]furan-10a-yl)phenol], the “Luciferase ERα % Eff” value in assay [1] is 6.4%. For the same molecule, in assay [2], the “R-SAT ERβ % Eff” value is on record as 24%. Also, the EC50 in assay [3] is 316 nM. In addition, the “R-SAT ERα % Eff” value in assay [4] came to 16%.
Take `Oc1ccc(C23CCCCCC2Oc2c(F)cccc23)cc1` (centres unmarked) [Compound 447, 4-(4-Fluoro-6,7,8,9,10,10a-hexahydro-5aH-benzo[b]cyclohepta-[d]furan-10a-yl)phenol]: in assay [1], the “Luciferase ERα % Eff” value is 25% and the EC50 was 398 nM. Besides, in assay [2], the “R-SAT ERβ % Eff” value is 85% and the EC50 is 5.01 nM. In assay [3], the “Luciferase ERβ % Eff” value worked out at 122% and the EC50 is 0.631 nM. For the same molecule, in assay [4], the “R-SAT ERα % Eff” value was determined as 97% and the EC50 was 398 nM.
With `Oc1ccc(C23CCCCCC2Oc2ccc(F)cc23)cc1` (centres unmarked) [Compound 448, 4-(2-Fluoro-6,7,8,9,10,10a-hexahydro-5aH-benzo[b]cyclohepta[d]-furan-10a-yl)phenol], in assay [1], the “Luciferase ERα % Eff” value was 36% and the EC50 was 316 nM. In addition, in assay [2], the “R-SAT ERβ % Eff” value is 83% and the EC50 was 1.26 nM. In addition, in assay [3], the “Luciferase ERβ % Eff” value stood at 114% and the EC50 was 0.1 nM. Besides, in assay [4], the “R-SAT ERα % Eff” value came to 92% and the EC50 is 398 nM.
Consider `Oc1ccc(C23CCCCCC2Oc2ccccc23)cc1` (centres unmarked) [Compound 807, 4-(6,7,8,9,10,10a-Hexahydro-5aH-benzo[b]cyclohepta[d]furan-10a-yl)phenol], for which, in assay [5], the Ki is 5.01 nM. In addition, in assay [1], the “Luciferase ERα % Eff” value is recorded as 51% and the EC50 is 316 nM. Besides, the Ki in assay [6] was 79.4 nM. In assay [2], the “R-SAT ERβ % Eff” value stood at 99% and the EC50 was 1.26 nM. Moreover, in assay [3], the “Luciferase ERβ % Eff” value stood at 81% and the EC50 is 0.316 nM. Also, in assay [4], the “R-SAT ERα % Eff” value is 93% and the EC50 was 398 nM.
As for `Oc1ccc(C23CCCCC2Oc2ccccc23)cc1` (centres unmarked) [Compound 961, 4-(5a,6,7,8,9,9a-Hexahydrodibenzo[b,d]furan-9a-yl)phenol], in assay [1], the “Luciferase ERα % Eff” value is on record as 54% and the EC50 was 794 nM. Moreover, in assay [2], the “R-SAT ERβ % Eff” value is given as 100% and the EC50 was 10 nM. In assay [3], the “Luciferase ERβ % Eff” value is recorded as 86% and the EC50 is 7.94 nM. Moreover, in assay [4], the “R-SAT ERα % Eff” value was 95% and the EC50 was 1000 nM.
